Values of other authors as cited in patent US20050100594A1, “Pharmaceutical formulation containing muscle relaxant and COX-II inhibitor” (priority 2003, published 2005).
Counter-ions that a name gives are not always drawn.

Tested on: skeletal muscle fibers, neuromuscular junction, monosynaptic spinal reflexes
Settings: animal models

## Clc1ccc2nsnc2c1NC1=NCCN1 [Tizanidine, 5-chloro-4-(2-imidazolin-2-ylamino)-2,1,3-benzothiodiazole hydrochloride]
  effect on monosynaptic spinal reflexes: no major effect
  effect on skeletal muscle fibers or the neuromuscular junction: no direct effect
